What was measured:
[1] = test system: rHSP90 in the MCF7 cell lysates; test: Cell lysate binding assay (biotin-GM competition); conditions: concentration for 50% inhibition of biotin-GM binding to rHSP90 in MCF7 cell lysates
Protocol: MCF7 breast carcinoma cell lysates were prepared by douncing in lysing buffer (20 mM HEPES, pH 7.3, 1 mM EDTA, 5 mM MgCl2, 100 mM KCl), and then incubated with or without test compound for 30 mins at 4° C., followed by incubation with biotin-GM linked to BioMag™ streptavidin magnetic beads (Qiagen) for 1 hr at 4° C. The tubes were placed on a magnetic rack, and the unbound supernatant removed. The magnetic beads were washed three times in lysis buffer and boiled for 5 mins at 95° C. in SDS-PAGE sample buffer. Samples were analyzed on SDS protein gels, and Western blots done for rHSP90. Bands in the Western Blots were quantitated using the Bio-rad Fluor-S MultiImager, and the % inhibition of binding of rHSP90 to the biotin-GM was calculated.
The IC50 reported is the concentration of test compound needed to achieve 50% inhibition of the biotin-GM binding to rHSP90 in the MCF7 cell lysates.

HER2/Neu protein = test: HER2 degradation assay; assay type: cell-based; conditions: Homo sapiens; 50% degradation of HER2/Neu protein, MCF7 cells, 16 h incubation
Protocol: MCF7 breast carcinoma cells (ATCC) were grown in Dulbecco's modified Eagle's medium (DMEM) containing 10% fetal bovine serum (FBS) and 10 mM HEPES, and plated in 24 well plates (50% confluent). Twenty-four hrs later (cells are 65–70% confluent), test compounds were added and incubated overnight for 16 h. […] The wells were washed with 1 mL phosphate buffered saline (PBS), and 200 μL trypsin was added to each well. After trypsinization was complete, 50 μL of FBS was added to each well. Then 200 μL cells was transferred to 96 well plates. The cells were pipetted up and down to obtain a single cell suspension. The plates were centrifuged at 2,500 rpm for 1 min using a Sorvall Legend RT™ tabletop centrifuge (Kendro Laboratory Products, Asheville, N.C.). The cells were then washed once in PBS containing 0.2% BSA and 0.2% sodium azide (BA buffer). Phycoerythrin (PE) conjugated anti HER2/Neu antibody (Becton Dickinson, #340552), or PE conjugated anti-keyhole limpet hemacyanin [KLH] (Becton Dickinson, #340761) control antibody was added at a dilution of 1:20 and 1:40 respectively (final concentration was 1 μg/mL) and the cells were pipeted up and down to form a single cell suspension, and incubated for 15 mins. The cells were washed twice with 200 μL BA buffer, and resuspended in 200 μL BA buffer, and transferred to FACSCAN tubes with an additional 250 μL BA buffer. Samples were analyzed using a FACSCalibur™ flow cytometer (Becton Dickinson, San Jose, Calif.) equipped with Argon-ion laser that emits 15 mW of 488 nm light for excitation of the PE fluorochrome. 10,000 events were collected per sample. A fluorescence histogram was generated and the mean fluorescence intensity (MFI) of each sample was determined using Cellquest software. The background was defined as the MFI generated from cells incubated with control IgG-PE, and was subtracted from each sample stained with the HER2/Neu antibody. Cells incubated with DMSO was always done as untreated controls since the compounds were resuspended in DMSO. Percent degradation of HER2 was calculated as follows: % HER2 degraded=[(MFI untreated cells−MFI treated cells)/MFI untreated cell]×100
IC50 is defined as the concentration at which there was 50% degradation of the HER2/Neu protein.

[2] = test system: MCF7 breast carcinoma cells; test: MTS assay; assay type: cell-based; conditions: Homo sapiens, concentration giving 50% viable cell number
Protocol: MTS assays measures the cytotoxicity of geldanamycin derivatives. MTS (3-(4,5-dimethylthiazol-2-yl)-5-(3-carboxymethoxyphenyl)-2-(4-sulfophenyl)-2H-tetrazolium is a tetrazolium dye that is converted to a formazan product by dehydrogenase enzymes of metabolically active cells (Corey, A. et al. “Use of an aqueous soluble tetrazolium/formazan assay for cell growth assays in culture,” Cancer Commun. 1991, 3, 207–212). Cells were seeded in 96 well plates at 2000 cells/well and allowed to adhere overnight in Dulbecco's modified Eagle's medium supplemented with 10% fetal bovine serum. The final culture volume was 100 μl. Viable cell number was determined by using the Celltiter 96 AQueous Non-radioactive Cell Proliferation Assay (Promega, Madison Wis.). The MTS/PMS (phenazine methosulfate) solution was mixed at a ratio of 20:1, and 20 μL was added per well to 100 μl of culture medium. After 2–4 hours, the formation of the formazan product was measured at 490 nm absorbance using a multiwell plate spectrophotometer. Background was determined by measuring the Abs 490 nm of cell culture medium and MTS-PMS in the absence of cells and was subtracted from all values. Percent viable cells was calculated as follows: % viable cells=(Abs at 490 nm treated cells/Abs at 490 nm untreated cells)×100
The effect of selected compounds of the invention on MCF7 breast carcinoma cells according to the MTS assay is summarized in Table 2. IC50 was defined as the concentration of the compound which gave rise to 50% viable cell number.

SMILES: COc1c(C)cnc(Cn2ncc3c(Cl)nc(N)nc32)c1C [Example 7, 4-Chloro-1-(4-methoxy-3,5-dimethyl-pyridin-2-ylmethyl)-1H-pyrazolo[3,4-d]pyrimidin-6-ylamine]
- IC50 [1]: 140 nM
- IC50 (HER2/Neu protein): 50 nM
- IC50 [2]: 130 nM

SMILES: COc1c(C)c(Cl)nc(Cn2ncc3c(Cl)nc(N)nc32)c1C [Example 8, 4-Chloro-1-(6-chloro-4-methoxy-3,5-dimethyl-pyridin-2-ylmethyl)-1H-pyrazolo[3,4-d]pyrimidin-6-ylamine]
- IC50 (HER2/Neu protein): 140 nM
- IC50 [2]: 500 nM

SMILES: Cc1cnc(Cn2ncc3c(Cl)nc(N)nc32)c(C)c1Cl [Example 9, 4-Chloro-1-(4-chloro-3,5-dimethyl-pyridin-2-ylmethyl)-1H-pyrazolo[3,4-d]pyrimidin-6-ylamine]
- IC50 (HER2/Neu protein): 90 nM
- IC50 [2]: 300 nM

SMILES: Cc1cnc(Cn2ncc3c(Cl)nc(N)nc32)c(C)c1Br [Example 14, 1-(4-Bromo-3,5-dimethyl-pyridin-2-ylmethyl)-4-chloro-1H-pyrazolo[3,4-d]pyrimidin-6-ylamine]
- IC50 [1]: 110 nM
- IC50 (HER2/Neu protein): 90 nM
- IC50 [2]: 1000 nM

SMILES: Cc1c[n+]([O-])c(Cn2ncc3c(Cl)nc(N)nc32)c(C)c1Br [Example 15, 1-(4-Bromo-3,5-dimethyl-1-oxy-pyridin-2-ylmethyl)-4-chloro-1H-pyrazolo[3,4-d]pyrimidin-6-ylamine]
- IC50 (HER2/Neu protein): 900 nM

SMILES: COc1c(C)cnc(Cn2nc(C)c3c(Cl)nc(N)nc32)c1C [Example 23, 4-Chloro-1-(4-methoxy-3,5-dimethyl-pyridin-2-ylmethyl)-3-methyl-1H-pyrazolo[3,4-d]pyrimidin-6-ylamine]
- IC50 (HER2/Neu protein): 40 nM
- IC50 [2]: 100 nM

SMILES: Cc1c[n+]([O-])c(Cn2nc(C)c3c(Cl)nc(N)nc32)c(C)c1Br [Example 24, 1-(4-Bromo-3,5-dimethyl-1-oxy-pyridin-2-ylmethyl)-4-chloro-3-methyl-1H-pyrazolo[3,4-d]pyrimidin-6-ylamine]
- IC50 (HER2/Neu protein): 30 nM
- IC50 [2]: 1000 nM

SMILES: Cc1c[n+]([O-])c(Cn2nc(C)c3c(Cl)nc(N)nc32)c(C)c1Cl [Example 25, 4-Chloro-1-(4-chloro-3,5-dimethyl-1-oxy-pyridin-2-ylmethyl)-3-methyl-1H-pyrazolo[3,4-d]pyrimidin-6-ylamine]
- IC50 (HER2/Neu protein): 30 nM
- IC50 [2]: 300 nM

SMILES: Cc1cnc(Cn2nc(C)c3c(Cl)nc(N)nc32)c(C)c1Cl [Example 26, 4-Chloro-1-(4-chloro-3,5-dimethyl-pyridin-2-ylmethyl)-3-methyl-1H-pyrazolo[3,4-d]pyrimidin-6-ylamine]
- IC50 [1]: 90 nM
- IC50 (HER2/Neu protein): 50 nM

SMILES: Cc1cnc(Cn2nc(C)c3c(Cl)nc(N)nc32)c(C)c1Br [Example 28, 1-(4-Bromo-3,5-dimethyl-pyridin-2-ylmethyl)-4-chloro-3-methyl-1H-pyrazolo[3,4-d]pyrimidin-6-ylamine]
- IC50 (HER2/Neu protein): 40 nM
- IC50 [2]: 1000 nM

SMILES: CCc1nn(Cc2ncc(C)c(OC)c2C)c2nc(N)nc(Cl)c12 [Example 29, 4-Chloro-3-ethyl-1-(4-methoxy-3,5-dimethyl-pyridin-2-ylmethyl)-1H-pyrazolo[3,4-d]pyrimidin-6-ylamine]
- IC50 [1]: 100 nM
- IC50 (HER2/Neu protein): 850 nM
- IC50 [2]: 1000 nM

SMILES: CCc1nn(Cc2ncc(C)c(Cl)c2C)c2nc(N)nc(Cl)c12 [Example 30, 4-Chloro-1-(4-chloro-3,5-dimethyl-pyridin-2-ylmethyl)-3-ethyl-1H-pyrazolo[3,4-d]pyrimidin-6-ylamine]
- IC50 (HER2/Neu protein): 110 nM
- IC50 [2]: 1000 nM

SMILES: COc1c(C)cnc(Cn2nc(C(C)C)c3c(Cl)nc(N)nc32)c1C [Example 31, 4-Chloro-3-isopropyl-1-(4-methoxy-3,5-dimethyl-pyridin-2-ylmethyl)-1H-pyrazolo[3,4-d]pyrimidin-6-ylamine]
- IC50 (HER2/Neu protein): 50 nM
- IC50 [2]: 300 nM

SMILES: COc1c(C)cnc(Cn2nc(-c3ccccc3)c3c(Cl)nc(N)nc32)c1C [Example 32, 4-Chloro-1-(4-methoxy-3,5-dimethyl-pyridin-2-ylmethyl)-3-phenyl-1H-pyrazolo[3,4-d]pyrimidin-6-ylamine]
- IC50 (HER2/Neu protein): 40 nM
- IC50 [2]: 80 nM

SMILES: Cc1cnc(Cn2nc(-c3ccccc3)c3c(Cl)nc(N)nc32)c(C)c1Cl [Example 33, 4-Chloro-1-(4-chloro-3,5-dimethyl-pyridin-2-ylmethyl)-3-phenyl-1H-pyrazolo[3,4-d]pyrimidin-6-ylamine]
- IC50 (HER2/Neu protein): 160 nM
- IC50 [2]: 600 nM

SMILES: Cc1cnc(Cn2nc(-c3ccccc3)c3c(Cl)nc(N)nc32)c(C)c1Br [Example 34, 1-(4-Bromo-3,5-dimethyl-pyridin-2-ylmethyl)-4-chloro-3-phenyl-1H-pyrazolo[3,4-d]pyrimidin-6-ylamine]
- IC50 (HER2/Neu protein): 120 nM
- IC50 [2]: 1000 nM

SMILES: Cc1c[n+]([O-])c(Cn2nc(-c3ccccc3)c3c(Cl)nc(N)nc32)c(C)c1Cl [Example 35, 4-Chloro-1-(4-chloro-3,5-dimethyl-1-oxy-pyridin-2-ylmethyl)-3-phenyl-1H-pyrazolo[3,4-d]pyrimidin-6-ylamine]
- IC50 [1]: 80 nM
- IC50 (HER2/Neu protein): 20 nM
- IC50 [2]: 1000 nM
